Test results taken from PubChem BioAssay (NCI).
Where “and” joins values, the source holds several entries; their conditions need not be identical. Equal values may be shown once.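 How tested: cells in 96-well plates exposed to compound for 48 hours at five concentrations. GI50 = concentration required for 50% inhibition of growth. TGI marks complete inhibition of growth.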 Where a SMILES comes first, the peptide text is derived from it. [ ]: non-standard residue; d: D form. The star is where a group is joined. NMeF = CN[C@@H](Cc1ccccc1)C(=O)O; NMeV = CN[C@H](C(=O)O)C(C)C; Boc = CC(C)(C)OC(=O)*; OBn = c1ccc(CO*)cc1

Key:
Assay in all cases: NCI-60 cell line screen, 48 h
[1] = system: HS 578T breast
[2] = system: RXF 393 renal
[3] = system: SK-MEL-2 melanoma
[4] = system: 786-0 renal
[5] = system: NCI/ADR-RES ovarian
[6] = system: HCT-15 colon
[7] = system: LOX IMVI melanoma
[8] = system: UACC-257 melanoma
[9] = system: MOLT-4 leukemia
[10] = system: K-562 leukemia

SMILES | TGI [1] | TGI [2] | TGI [3] | TGI [4] | TGI [5] | TGI [6] | TGI [7] | TGI [8] | GI50 [9] | TGI [9] | GI50 [1] | GI50 [2] | GI50 [3] | GI50 [10] | TGI [10] | GI50 [4] | GI50 [5] | GI50 [6] | GI50 [7] | GI50 [8]
COC(=O)/C(=N\NC(=S)NN)C(C(=O)OC)C(=O)C(=O)Nc1cccc(C(F)(F)F)c1 (stereo not given) | > 100 µM | > 100 µM | > 100 µM | > 100 µM | > 100 µM | > 100 µM | > 100 µM | > 100 µM |  |  |  |  |  |  |  |  |  |  |  | 
COc1ccc2c(c1)/C(=C\c1c(Cl)n(C)c3ccccc13)C(=O)N2 | 8.12 µM | 8.23 µM | 31.4 µM | 12.5 µM | 2.03 µM | 8.17 µM | > 100 µM | 13.3 µM | 1.7 µM | > 22 µM | 1.44 µM | 1.53 µM | 0.668 µM | 3.71 µM | > 100 µM | 2.18 µM | 0.629 µM | 0.456 µM | 0.83 µM | 1.87 µM
COc1cccc(Cn2c(-c3nonc3NC(C)=O)nc3ccccc32)c1 | 7.24 µM | 5.74 µM | 18.9 µM | > 100 µM | > 100 µM | > 100 µM | > 100 µM | 88.4 µM | 5.63 µM | > 100 µM | 1.87 µM | 1.92 µM | 3.07 µM | 4.02 µM | > 100 µM | 10.4 µM | 3.24 µM | 3.59 µM | 6.1 µM | 5.71 µM
CSc1nc(C)c(Br)c(=O)n1C1OC(COC(C)=O)C(OC(C)=O)C(OC(C)=O)C1OC(C)=O (stereo not given) | > 100 µM | 49.2 µM and 40.7 µM | > 100 µM | > 100 µM and 48.5 µM | > 100 µM | > 100 µM | > 100 µM | > 100 µM |  | > 100 µM |  |  |  |  | > 100 µM | 74 µM and 26.3 µM |  |  |  | > 100 µM and 39 µM
CCC(c1ccc2cc(O)ccc2c1)C(C)(C)C(=O)O (stereo not given) | > 100 µM | > 100 µM | > 100 µM | > 100 µM | > 100 µM | > 100 µM | > 100 µM | > 100 µM |  | > 100 µM |  |  |  |  | > 100 µM |  |  |  |  | 
O=C1/C(=C/c2ccccc2F)CN(C(=O)C(Cl)Cl)C/C1=C\c1ccccc1F | 5.51 µM | 1.75 µM | 3.62 µM | 2 µM | 2.64 µM | 0.694 µM | 0.297 µM | 3.19 µM | 0.329 µM |  | 0.985 µM | 0.584 µM | 1.6 µM | < 0.04 µM | > 100 µM | 0.666 µM | 0.342 µM | 0.217 µM | 0.11 µM | 1.08 µM
CC(C)[C@@H](C(=O)N1CCC[C@H]1C(=O)OCc1ccccc1)N(C)C(=O)[C@H](C(C)C)N(C)C(=O)[C@H](Cc1ccccc1)N(C)C(=O)[C@H](NC(=O)OC(C)(C)C)C(C)C (Boc-[dV][NMeF][NMeV][NMeV]P-OBn) | > 50 µM | > 50 µM and 65.3 µM | > 100 µM | > 100 µM | > 50 µM | > 100 µM | > 50 µM and 26.6 µM | > 100 µM | 3.68 µM | > 100 µM |  | 22.4 µM |  | > 100 µM | > 100 µM | 39.5 µM |  |  | 12.9 µM | 16.5 µM
N#C/C(=C1C=C/C(=N\O)C(Cl)=C\1)c1ccccc1 | 38.5 µM | 18.2 µM |  | 11.9 µM | 5.17 µM | 11 µM |  | 28.2 µM | 2.91 µM | 9.02 µM | 3.58 µM | 4.72 µM |  | 2.27 µM | 13.5 µM | 0.745 µM | 1.66 µM | 2.34 µM |  | 4.49 µM
CC(C)n1c(=O)n(C)c2cnc3cc(F)c(-c4ccc(OCCCN5CCCCC5)nc4)cc3c21 | 18.1 µM |  | 30.2 µM | 37.9 µM | 81.3 µM | 31.5 µM | 16.6 µM | 36.8 µM | 5.47 µM | 41.5 µM | 3.33 µM |  | 14.4 µM |  |  | 12.9 µM | 12.4 µM | 11.1 µM | 4.13 µM | 16.4 µM
Cc1cc(=O)oc2c(OS(C)(=O)=O)c(OS(C)(=O)=O)ccc12 | > 100 µM |  | > 100 µM | > 100 µM | > 100 µM | > 100 µM | > 100 µM | > 100 µM |  | > 100 µM |  |  |  |  | > 100 µM |  |  |  |  | 
COC1=CC(c2ccc[nH]2)=N/C1=C\c1[nH]c(C)c(C(C)=O)c1C | > 100 µM |  | 6.63 µM | 1.62 µM | > 100 µM | 2.15 µM |  | > 100 µM | 0.032 µM | > 100 µM | 0.552 µM |  | 1.99 µM | 3.28 µM | > 45.4 µM | 0.309 µM | 0.458 µM | 0.21 µM |  | 3.44 µM
Cc1ccc(NC2=C(Cl)C(=O)N(Cc3ccccc3)C2=O)cc1Cl | 33.9 µM | 10.6 µM |  | 21 µM | 20.6 µM | 21.4 µM | 14.2 µM |  | 1.71 µM | 6.81 µM | 10.6 µM | 2.33 µM |  | 3.69 µM | 25.8 µM | 6.39 µM | 6.11 µM | 5.4 µM | 2.53 µM | 
C=C(C)[C@@H]1CC[C@]2(C(=O)O)CC[C@]3(C)[C@H](CC[C@@H]4[C@@]5(C)C/C(=C/c6ccc(OC)cc6)C(=O)C(C)(C)[C@@H]5CC[C@]43C)[C@@H]12 | 9.03 µM | 5.26 µM | 6.29 µM | 12.1 µM | 13.3 µM | 4.4 µM |  | 6.93 µM | 2.97 µM | > 100 µM | 2.65 µM | 2.1 µM | 2.38 µM | 2.21 µM | > 100 µM | 2.83 µM | 2.84 µM | 1.79 µM |  | 2.1 µM
CCCC(=O)Nc1ccc2c(c1)CN1C(=O)c3ccccc3C1=N2 | > 100 µM |  | > 100 µM | > 100 µM | > 100 µM | > 100 µM | > 100 µM | > 100 µM |  | > 100 µM |  |  |  |  |  |  |  |  |  | 
O=C1CC[C@H](c2ccc(O)c3c2C(=O)[C@@H]2O[C@@H]2C3=O)c2cccc(O)c21 | 97.2 µM | 3.27 µM | 26.9 µM | 3.43 µM | 15.1 µM |  | 3.86 µM | 9 µM | 2.71 µM | 17.4 µM | 3.78 µM | 1.73 µM | 13 µM | 2.36 µM | 10.4 µM | 1.79 µM | 3.01 µM |  | 0.976 µM | 2.98 µM
COC1=C2C[C@@H](C)C[C@@H](OC)[C@@H](O)[C@H](C)/C=C(\C)[C@@H](OC(N)=O)[C@H](OC)/C=C\C=C(/C)C(=O)NC(=CC1=O)C2=O | 17.5 µM and 42 µM and 38.2 µM |  |  | 8.21 µM and 6.04 µM and 13.7 µM | 10.7 µM and 32.8 µM and 10.6 µM |  | 1.48 µM and 1.38 µM | 5.05 µM and 12.7 µM and 2.5 µM |  |  | 1.31 µM and 11.8 µM and 1.25 µM | 0.0245 µM |  |  |  |  |  |  | 0.0208 µM and 0.051 µM and 0.0459 µM | 
